The results in this text go back to US20260085293A1, “SOLUTION AND METHOD FOR TRANSPORTING OR STORING BODY FLUID SAMPLE” (PROVIGATE INC., priority 2023, published 2026).

This assay has as its system glycoalbumin. The assay is described as follows: Relative GA value of diluted pool serum with active ingredient after 2 days at 37° C., assayed by HPLC. Also noted: species or system human. As to the method:
Examples will now be described. Blood samples were diluted with diluents containing active ingredients according to the embodiments of the present disclosure, and the GA values thereof were assayed by HPLC on the same day and after two days.
First, a solution containing 10 mM of HEPES and 150 mM of NaCl was prepared. The pH was 8.0. Into this solution, an active ingredient was mixed to prepare a diluent.
In Examples 1 to 4, pool serum was used as the blood samples. The pool serum was prepared by isolating serum from venous blood taken from multiple healthy subjects and then mixing. The resulting product was mixed with the diluent described above. Into 90 μL of the diluent, 10 μL of the blood serum was introduced to prepare a 10-fold dilution (10×) assay sample.
The sample was assayed on the same day (“day 0”) or was stored in a 37° C. constant temperature reservoir for two days (“day 2”) and then assayed.
For the assay conditions, “GA detection by HPLC method” J Chromatogr 597, 271-275 (1992) was referred. Columns used were AEX:Shodex-Asahipak ES-502N (7.5 mm ID ×100 mm) (Showa Denko K.K.) and BAC:TSKgel Boronate-5PW (4.6 mm ID×100 mm) (TOSOH CORPORATION). The eluents used were glycine (JIS special grade), magnesium chloride hexahydrate (JIS special grade), D(−)-sorbitol (Wako 1st grade), ethanol (99.5%, JIS special grade), tris(hydroxymethyl)aminomethane (Tris, Biotechnology grade), and EDTA-2Na. For the analysis, Prominence HPLC system (Shimadzu Corporation) equipped with a system controller was used.
In the graphs indicated in FIGS. 2 to 5, the vertical axis indicates the ratio (relative GA value) of the GA value assayed two days (day 2) after the preparation to the GA value measured on the same day (day 0) as the preparation. When assay was carried out multiple times, the average value is indicated.
Each of the additives was dissolved in the diluent to a predetermined concentration (0.1% to 0.5%) in w/v. For example, specifically, 570 μL of the diluent containing each additive was added to 30 μL of pool serum to prepare a 20× diluted liquid. The GA% of the day 0 sample and that of the day 2 sample left to stand still for 2 days in a 37° C. constant temperature reservoir were assayed by using HPLC.

[1] abbreviates: 0.1 w/v% active ingredient in diluent.
Setting [2] is: 0.2 w/v% active ingredient in diluent.

As for `OC[C@H]1O[C@H](O[C@H]2[C@H](O)[C@@H](O)[C@@H](O[C@H]3[C@H](O)[C@@H](O)C(O)O[C@@H]3CO)O[C@@H]2CO)[C@H](O)[C@@H](O)[C@@H]1O` (mixture of isomers) [MT, maltotriose], the “relative GA value (day 2 / day 0)” value is, setting by setting: under setting [1], “about 98.2”; under setting [2], “about 99.8”. The “relative GA value (day 2 / day 0), in words” value (0.5 w/v% active ingredient in diluent, not illustrated) is “excessively large”.
For `CC(=O)N[C@H]1C(O)O[C@H](CO)[C@@H](O)[C@@H]1O[C@H](C)C(=O)O` (stereo partly drawn) [NAM, N-acetylmuramic acid], the “relative GA value (day 2 / day 0)” value is given as “about 98.5” under setting [1] and “about 99.0” under setting [2].
On to `[H]/N=C(/N)N[C@H]1[C@H](O)[C@@H](O)[C@H](O[C@@H]2O[C@@H](C)[C@](O)(C=O)[C@H]2O[C@@H]2O[C@@H](CO)[C@H](O)[C@@H](O)[C@@H]2NC)[C@@H](N/C(N)=N\[H])[C@@H]1O` [STR, streptomycin, reference compound], for which the “relative GA value (day 2 / day 0)” value under setting [1] is listed as “about 100%” and the “relative GA value (day 2 / day 0)” value under setting [2] is listed as “about 102%”.
Turning to `CN[C@@H]1[C@@H](O)[C@@H](O[C@@H]2[C@@H](O)[C@H](O[C@H]3O[C@H]([C@@H](C)O)[C@@H](O)[C@H](O)[C@H]3N)[C@@H](N)C[C@H]2N)OC[C@]1(C)O` [G418, reference compound], the “relative GA value (day 2 / day 0)” value is listed as “about 98.2” under setting [1] and “about 98.2” under setting [2].
